molecular target: T1, FLuc-C-HiBiT (Photinus pyralis, UniProt P08659); assay: biochemical; details: enzyme activity, 10 uM ATP; read-out: IC50 or SDR50 (mM) / FLuc E
T1 construct: firefly luciferase with C-terminal HiBiT tag, E. coli expressed
Experimental: The enzyme activity of FLuc-N-HiBiT, FLuc-C-HiBiT, and FLuc-C-NLuc was measured similar to P. pyralis firefly luciferase (FLuc) as previously described. […] Compounds and controls were added to each plate as described in Supplementary Data 8 with a Hornet pintool system (Wako Automation). Compounds were incubated with respective enzymes for 30–60 min at room temperature protected from light and covered by solid metal lid to prevent evaporation. […] Luciferin was incubated with FLuc enzyme for 5 min before FLuc activity was then measured on a ViewLux CCD imager (PerkinElmer), with exposure times up to ten seconds with medium to high gain settings. Data were normalized to average no enzyme control as 100% enzyme inhibition and average DMSO neutral control. See Supplementary Table 4 for additional details. As a proof-of-concept target, we appended the sensor protein or corresponding α-peptide to either the N- or C-terminus of the target protein firefly luciferase (FLuc), an ATP cofactor-dependent monooxygenase (Supplementary Fig. 1a) having a broad, well-characterized and accessible ligand pharmacology. For initial characterization of the SDR concept, either NLuc or the 11 amino acid HiBiT tag (α-peptide) and complementary 18 kDa LgBiT subunit (ω-fragment), which self-assemble to reconstitute functional NLuc enzyme[24] were tested. In contrast to the ATP-dependent bioluminescent FLuc enzyme, NLuc generates a bright bioluminescence in an ATP-independent manner from the direct oxidation of furimazine (Supplementary Fig. 1b). […] Next, FLuc-C-NLuc, FLuc-N-HiBiT or FLuc-C-HiBiT were assayed with the same inhibitor in an SDR assay format by monitoring bioluminescence from NLuc or its reconstitution by α-complementation with LgBiT. Measurements of NLuc activity were made either in the absence or presence of the FLuc ATP cofactor, as NLuc bioluminescence is ATP-independent.

T1 sequence (P08659 whole entry, looked up): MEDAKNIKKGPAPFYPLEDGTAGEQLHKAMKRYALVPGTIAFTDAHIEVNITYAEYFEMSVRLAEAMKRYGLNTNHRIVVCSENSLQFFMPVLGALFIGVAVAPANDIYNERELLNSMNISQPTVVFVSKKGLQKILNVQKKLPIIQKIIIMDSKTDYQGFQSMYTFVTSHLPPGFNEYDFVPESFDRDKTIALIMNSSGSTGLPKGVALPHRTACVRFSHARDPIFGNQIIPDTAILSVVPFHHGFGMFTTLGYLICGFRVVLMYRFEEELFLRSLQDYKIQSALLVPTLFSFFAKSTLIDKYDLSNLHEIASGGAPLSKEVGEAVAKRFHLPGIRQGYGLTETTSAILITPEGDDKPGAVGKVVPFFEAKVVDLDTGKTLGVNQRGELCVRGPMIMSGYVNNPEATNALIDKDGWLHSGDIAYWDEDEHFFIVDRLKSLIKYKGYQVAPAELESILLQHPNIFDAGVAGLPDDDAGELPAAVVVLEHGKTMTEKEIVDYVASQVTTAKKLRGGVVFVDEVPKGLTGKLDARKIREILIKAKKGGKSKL

IC50 [µM]	Structure (SMILES)
1.76	C[C@@H]1CN(c2nc(-c3ccccc3)no2)CC[C@@]1(O)C1CCC1 [NCGC00439928-01]
11.1	Cc1ccc(NC(=O)Nc2ccc(C)n(CC(=O)NCCN3CCCC3)c2=O)cc1 [NCGC00430806-01]
11.4	O=C1c2cnc(-c3ccc(CO)cc3)nc2OCCN1CC1CC1 [NCGC00413563-01]
20.2	Cn1ccnc1CN1CCc2nc(C(=O)Nc3ccccc3)oc2CC1 [NCGC00413360-01]
20.2	c1ccc(Nc2cc3c(cn2)CN(CC2CCOC2)CCN3)cc1 (stereo not drawn) [NCGC00411051-01]
18	COc1cccc(CN2CCc3nc(C(=O)Nc4nc(C)cs4)oc3CC2)c1 [NCGC00413306-01]
18	COc1cccc(CN2CCNc3cc(Nc4ccccc4)ncc3C2)c1 [NCGC00411172-01]
18	CCCN1CCc2nc(C(=O)Nc3ccccc3)oc2CC1 [NCGC00413331-01]
0.624	Cc1ccc(-n2ncc3c(NC4CCCC4)ncnc32)cc1 [NCGC00138985-01]
1.24	Fc1ccc(-n2ncc3c(N4CCCCCC4)ncnc32)cc1 [NCGC00138953-01]
12.4	Cc1ccc(NC(=O)N2CCC(CCNC(=O)C3CCC3)CC2)cc1F [NCGC00425059-01]
> 30	Oc1cc(-c2nc3ccccc3s2)cc2c1OCCN(Cc1cccn1-c1ncccn1)C2 [NCGC00239686-01]
> 30	C=CCNC(=O)c1cccc2c(C)nnn12 [NCGC00477166-01]
> 30	COc1ccccc1OC1(C(=O)O)CCN(c2ncnc3[nH]cnc23)CC1 [NCGC00436727-01]
18	O=C1CC2(CCN(CC3CC3)CC2)Oc2ccccc21 [NCGC00476832-01]
18	O=C(NCCC1CCCCC1)c1c[nH]c2ncccc12 [NCGC00480521-01]
9.89	CN(C)c1cccc(C(=O)Nc2ccc3c(N4CCOCC4)ncnc3c2)c1 [NCGC00425557-01]
0.7	Cc1ccc(NC(=O)Nc2ccc(C)n(CC(=O)NC3CCCC3)c2=O)cc1 [NCGC00430792-01]
> 30	OCc1cn(CC2CCN(c3ncnc4[nH]cnc34)CC2)nn1 [NCGC00425096-01]
14	COc1ccc2nc(-c3ccc(N4CCN(C(=O)OC(C)(C)C)CC4)cc3)sc2c1 [NCGC00167609-02]
> 30	O=C(O)C1(Oc2ccc3ccccc3c2)CCN(c2ncnc3[nH]cnc23)CC1 [NCGC00441641-01]

Second part, the molecule before the results:

Structure (SMILES)	IC50 [µM]
COCCN1CCC2(C1)CN(C)c1ccc(C(=O)Nc3ccccc3)cc12 (stereo not drawn) [NCGC00419345-01]	1.14
CCCC(=O)Nc1cnc(-c2ccc(C)cc2)nc1 [NCGC00432897-01]	3.51
Cc1ccc(-c2cc3c(=O)n(CCNC(=O)c4ccco4)ccn3n2)c(C)c1 [NCGC00456979-01]	9.89
COc1cccc(-c2ccc(-c3nc(C4CCOC4)no3)o2)c1 (stereo not drawn) [NCGC00448436-01]	9.89
COc1cccc(C(=O)Nc2ccccc2-c2nc3ccccc3s2)c1 [NCGC00102557-01]	> 30
Oc1ccccc1CN1CCNc2cc(-c3ccccc3)ncc2C1 [NCGC00411063-01]	16.1
COc1ccc(OCC(=O)Nc2ccc(O)c(-c3nc4ccccc4s3)c2)cc1 [NCGC00099132-01]	> 30
O=C(O)c1ccccc1-c1nc2ccccc2s1 [NCGC00645508-01]	> 30
O=C(c1ccc(C(F)(F)F)cc1)N1CCc2nc(-c3ccccc3)nc(-c3ccc(Cl)cc3)c2C1 [NCGC00480461-01]	> 30
O=C(NCCc1ccccc1)c1ccc2c(c1)nc1n2CCOC1 [NCGC00133386-01]	8.81
Cc1ccc(-n2nc(C)c([C@H]3C=C[C@@H](OC(=O)Nc4cccc(C(F)(F)F)c4)C3)c2C)cc1Cl [NCGC00401611-01]	> 30
CCN1C(=O)CCc2cc(NC(=O)c3ccc(OC(F)(F)F)cc3)ccc21 [NCGC00425397-01]	11.1
CC(C)Oc1cccc(-c2cccc(COc3ccc4c(cnn4CC[S+](C)(=O)[O-])c3)c2)c1 [NCGC00418050-01]	11.1
CNc1ccc2cc(-c3nc4ccc(C(=O)O)cc4s3)ccc2c1 [NCGC00655706-01]	0.007
CCC(CC)COC(=O)[C@H](C)N[P@](=O)(OC[C@H]1O[C@@](C#N)(c2ccc3c(N)ncnn23)[C@H](O)[C@@H]1O)Oc1ccccc1 [NCGC00686694-05]	> 30
O=C1CCc2cc(NC(=O)c3n[nH]c4ccccc34)ccc2N1 [NCGC00425473-01]	3.13
C[C@H](C(=O)N1CCCC1)C1CC[C@@]2(C)Cc3sc(-c4ccccc4)nc3[C@@H](C)[C@@H]2[C@H]1O (stereo partly drawn) [NCGC00401417-01]	1.97
O=C1c2cnc(-c3ccccc3)nc2OCCN1Cc1ccccc1 [NCGC00413632-01]	> 30
Cc1nn(-c2ccc(C(C)C)cc2)c(C)c1[C@@H]1C=C[C@@H](NC(=O)Nc2ccccc2)C1 [NCGC00421405-01]	18
CCC(CC)c1nn2cc(-c3ccccc3)nc2s1 [NCGC00117460-01]	0.881
O=C(O)c1cccc(-c2noc(-c3cccc(Cl)c3)n2)c1 [NCGC00168763-01]	0.007

Structure (SMILES)	IC50 [µM]
CC1=C[C@@H](CNC(=O)c2ccncc2)[C@H](C(C)C)C[C@H]1CC(=O)N1CCOCC1 [NCGC00394503-01]	> 30
N#Cc1ccc(C(=O)Nc2ccccc2-c2nc3ccccc3s2)c(F)c1 [NCGC00103058-01]	> 30
COc1ccc(NC(=O)c2cc3ccccc3o2)c(OC)c1 [NCGC00141077-01]	4.95
CCc1noc(-c2nc(-c3ccccc3C)no2)n1 [NCGC00450081-01]	> 30
COc1ccc(NC(=O)/C(C#N)=C/c2ccc(C)o2)cc1 [NCGC00099040-01]	6.24
C=Cc1ccc(-c2nc3ccc(OC)cc3s2)cc1 [NCGC00167606-01]	0.442
COc1ccc(-c2nc3ccccc3s2)cc1NC(C)=O [NCGC00141118-01]	6.24
O=C(O)c1cccc(-c2noc(-c3ccccc3F)n2)c1 [PTC124]	0.00154
CC(=O)c1ccc(NC(=O)CCc2c(C)nc3cc(-c4ccc(Cl)cc4)nn3c2C)cc1 [NCGC00110026-01]	7.85
O=C(CSc1nccn1Cc1ccco1)Nc1ccc(OC(F)(F)F)cc1 [NCGC00136029-01]	12.4
Cc1ccc(-n2nc(C)c([C@@H]3C=C[C@@H](NC(=O)NC(C)C)C3)c2C)cc1Cl [NCGC00399958-01]	14.3
CN1CCNc2cc(-c3ccc([S+](C)(=O)[O-])cc3)ncc2C1 [NCGC00411079-01]	> 30
CNC(=O)c1cccc(-c2cnc(Nc3ccc(Cl)cn3)c3c2CCO3)c1 [NCGC00412786-01]	10.1
O=C(Nc1ccccc1C(=O)O)c1cccc([S+](=O)([O-])N2CCCC2)c1 [NCGC00098464-01]	12.4
CCc1ccc(-c2nc(CSCC(=O)NCc3ccc(C)cc3)c(C)o2)cc1 [NCGC00109429-01]	14
Cc1ccc(C(=O)Nc2ccc3oc(-c4ccccc4C)nc3c2)cc1 [NCGC00118998-01]	> 30
CCC(=O)Nc1cnc(-c2ccc(C)cc2)nc1 [NCGC00432895-01]	8.81
Cc1c(NC(=O)c2cccc(Cl)c2Cl)cccc1-c1nc2ccccc2s1 [NCGC00595034-01]	> 30
Cc1ccc(NC(=O)Nc2cccn3nc(C)nc23)cc1 [NCGC00470444-01]	11.1
O=C(c1n[nH]cc1Cl)N1CCOC(Cc2cccc(C(F)(F)F)c2)C1 (stereo not drawn) [NCGC00431816-01]	> 30
COc1ccccc1-c1noc(-c2ccc(N3CCN(C)CC3)c([N+](=O)[O-])c2)n1 [NCGC00119222-01]	4.95

From PMC12064818, “A general assay platform to study protein pharmacology using ligand-dependent structural dynamics” (Nature Communications, 2025)
